Assay results taken from the supplement of paper PMC10307832.

Assays:
Assay in all cases: relative viability (nuclei count vs DMSO), 5 days (fraction); higher = more cells survive
[1] = compound: CS(=O)(=O)N1CCN(Cc2cc3nc(-c4cccc5[nH]ncc45)nc(N4CCOCC4)c3s2)CC1 [Pictilisib] + Cc1nc(Nc2ncc(C(=O)Nc3c(C)cccc3Cl)s2)cc(N2CCN(CCO)CC2)n1 [Dasatinib] (partner 0.075 µM)
How it was run: (§1)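 Each reported value is a median over duplicate plates. It expresses relative viability: treated-well nuclei count divided by vehicle-well nuclei count. Lung cancer cell lines in 1536-well plates were dosed by pin tool a day after seeding, alone with one drug or with a fixed anchor-drug dose plus five library-drug doses (not always all listed) in √10 steps, and nuclei were counted after 5 days.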

[2] = compound: NC1(c2ccc(-c3nc4ccn5c(=O)[nH]nc5c4cc3-c3ccccc3)cc2)CCC1 [MK-2206] + O=C(CCCCCCC(=O)Nc1ccccc1)NO [Vorinostat] (partner 1 µM)
How it was run: as §1

[3] = compound: NC1(c2ccc(-c3nc4ccn5c(=O)[nH]nc5c4cc3-c3ccccc3)cc2)CCC1 [MK-2206] + COc1cc2c(Oc3ccc(NC(=O)C4(C(=O)Nc5ccc(F)cc5)CC4)cc3F)ccnc2cc1OCCCN1CCOCC1 [Foretinib] (partner 0.25 µM)
How it was run: as §1

[4] = compound: CS(=O)(=O)N1CCN(Cc2cc3nc(-c4cccc5[nH]ncc45)nc(N4CCOCC4)c3s2)CC1 [Pictilisib] + Cc1nc(NC(=O)N2CCC[C@H]2C(N)=O)sc1-c1ccnc(C(C)(C)C(F)(F)F)c1 [Alpelisib] (partner 2 µM)
How it was run: as §1

[5] = compound: NC1(c2ccc(-c3nc4ccn5c(=O)[nH]nc5c4cc3-c3ccccc3)cc2)CCC1 [MK-2206] + Cc1cc(Nc2cc(N3CCN(C)CC3)nc(Sc3ccc(NC(=O)C4CC4)cc3)n2)n[nH]1 [Tozasertib] (partner 0.1 µM)
How it was run: as §1

Cell Line	relative viability ([1]; first compound 0.02 µM)	relative viability ([1]; first compound 0.06325 µM)	relative viability ([1]; first compound 0.6325 µM)	relative viability ([1]; first compound 2 µM)	relative viability ([2]; first compound 0.01 µM)	relative viability ([2]; first compound 0.03162 µM)	relative viability ([2]; first compound 0.3162 µM)	relative viability ([2]; first compound 1 µM)	relative viability ([3]; first compound 0.01 µM)	relative viability ([3]; first compound 0.03162 µM)	relative viability ([3]; first compound 0.3162 µM)	relative viability ([3]; first compound 1 µM)	relative viability ([4]; first compound 0.02 µM)	relative viability ([4]; first compound 0.06325 µM)	relative viability ([4]; first compound 0.6325 µM)	relative viability ([4]; first compound 2 µM)	relative viability ([5]; first compound 0.01 µM)	relative viability ([5]; first compound 0.03162 µM)	relative viability ([5]; first compound 0.3162 µM)	relative viability ([5]; first compound 1 µM)
COR-L23	0.445	0.481	0.384	0.295	0.462	0.52	0.426	0.408	1.1	0.959	1.12	0.948	0.821	0.804	0.8	0.572	0.186	0.243	0.234	0.17
NCI-H1755	0.406	0.415	0.246	0.187	0.774	0.698	0.582	0.636	0.929	0.986	0.816	0.823	0.924	0.939	0.892	0.506	0.647	0.549	0.582	0.513
LOU-NH91	0.581	0.546	0.443	0.359	0.938	0.933	0.887	0.826	0.984	0.958	0.927	0.917	0.742	0.741	0.697	0.585	0.693	0.727	0.658	0.645
EMC-BAC-2	0.317	0.324	0.247	0.199	0.468	0.442	0.442	0.392	1.06	1.01	0.905	0.885	0.754	0.766	0.721	0.577	0.333	0.298	0.271	0.261
NCI-H2023	0.556	0.509	0.182	0.0932	0.54	0.428	0.431	0.391	0.943	0.972	0.922	0.722	0.546	0.488	0.445	0.32	0.345	0.347	0.239	0.197
EKVX	0.534	0.414	0.303	0.16	0.681	0.684	0.648	0.693	0.877	0.673	0.855	0.387	0.913	0.882	0.761	0.339	0.405	0.395	0.344	0.329
NCI-H2085	0.241	0.22	0.198	0.18	0.693	0.754	0.751	0.653	0.921	1.07	1	0.735	1.01	0.959	0.74	0.419	0.781	0.793	0.786	0.716
NCI-H3122	0.876	0.926	0.54	0.179	0.924	0.969	0.944	0.871	0.998	0.896	1.05	0.944	0.749	0.723	0.658	0.469	0.366	0.39	0.469	0.169
HCC-827	0.357	0.242	0.183	0.136	0.791	0.847	0.816	0.323	1.13	1.05	0.945	0.984	1.02	0.829	0.892	0.518	0.441	0.438	0.366	0.412
HARA	0.256	0.246	0.163	0.142	0.391	0.539	0.455	0.59	0.944	0.951	0.929	0.809	0.766	0.888	0.768	0.494	0.0977	0.106	0.267	0.094
NCI-H441	0.639	0.528	0.352	0.256	0.76	0.707	0.701	0.565	0.923	1.03	0.59	0.822	0.735	0.833	0.698	0.541	0.68	0.573	0.498	0.462
SK-MES-1	0.304	0.308	0.128	0.117	1.02	1.15	1.02	1.05	0.893	1.06	0.886	0.84	0.856	0.804	0.634	0.45	0.813	0.847	0.885	0.794
HCC-15	0.639	0.627	0.492	0.301	0.821	0.828	0.78	0.854	0.971	1.04	0.958	0.892	0.829	0.926	0.829	0.714	0.397	0.394	0.28	0.235
ABC-1	0.664	0.55	0.522	0.473	0.78	1.04	1.08	1.11	1.16	0.965	1.17	1.07	1.1	1.04	0.995	0.809	0.145	0.148	0.167	0.163
EPLC-272H	0.304	0.323	0.216	0.142	0.513	0.401	0.482	0.435	0.811	0.686	0.649	0.633	1.06	0.877	0.826	0.738	0.292	0.378	0.344	0.246
NCI-H2009	0.307	0.298	0.159	0.129	0.759	0.739	0.708	0.766	1.26	1.18	1.24	1.16	1.19	1.17	1.13	1.07	0.657	0.674	0.677	0.639

Cell Line	relative viability ([1]; first compound 0.02 µM)	relative viability ([1]; first compound 0.06325 µM)	relative viability ([1]; first compound 0.6325 µM)	relative viability ([1]; first compound 2 µM)	relative viability ([2]; first compound 0.01 µM)	relative viability ([2]; first compound 0.03162 µM)	relative viability ([2]; first compound 0.3162 µM)	relative viability ([2]; first compound 1 µM)	relative viability ([3]; first compound 0.01 µM)	relative viability ([3]; first compound 0.03162 µM)	relative viability ([3]; first compound 0.3162 µM)	relative viability ([3]; first compound 1 µM)	relative viability ([4]; first compound 0.02 µM)	relative viability ([4]; first compound 0.06325 µM)	relative viability ([4]; first compound 0.6325 µM)	relative viability ([4]; first compound 2 µM)	relative viability ([5]; first compound 0.01 µM)	relative viability ([5]; first compound 0.03162 µM)	relative viability ([5]; first compound 0.3162 µM)	relative viability ([5]; first compound 1 µM)
NCI-H661	0.942	0.878	0.439	0.304	0.759	0.737	0.767	0.681	1.01	1.09	1.01	0.986	0.598	0.794	0.579	0.373	0.377	0.354	0.373	0.364
NCI-H520	0.176	0.135	0.146	0.114	0.677	0.677	0.337	0.31	0.785	1.16	0.332	0.28	0.996	0.815	0.724	0.267	0.405	0.543	0.254	0.367
NCI-H2405	0.231	0.217	0.189	0.168	1.04	1.09	1.07	0.894	1.03	1.08	0.991	0.98	0.957	0.785	0.732	0.424	0.818	0.799	0.662	0.635
LCLC-97TM1	0.8	0.919	0.781	0.602	0.578	0.779	0.625	0.734	0.881	0.929	0.887	0.804	0.268	0.353	0.265	0.176	0.26	0.382	0.194	0.223
NCI-H727	0.319	0.38	0.292	0.342	1.18	1.33	1.25	0.901	1.12	0.889	0.838	0.942	0.715	0.55	0.519	0.376	0.578	0.659	0.559	0.626
NCI-H2228	0.654	0.433	0.317	0.167	0.741	0.857	0.588	0.386	0.761	0.811	0.614	0.467	0.674	0.665	0.507	0.35	0.388	0.235	0.221	0.11
LK-2	0.278	0.324	0.185	0.185	0.26	0.287	0.334	0.221	1.57	1.19	1.34	1.39	1.16	1.06	0.925	0.905	0.174	0.165	0.186	0.168
PC-3 [JPC-3]	0.965	1.02	1.03	0.555	0.796	0.691	0.826	0.755	1.05	1.12	0.99	1.04	1	1.09	1.04	0.976	0.874	0.83	0.873	0.899
NCI-H596	0.569	0.537	0.325	0.207	0.64	0.754	0.604	0.462	1.02	0.921	0.677	0.77	0.476	0.481	0.523	0.36	0.912	1.01	0.829	0.765
NCI-H460	0.531	0.545	0.205	0.0803	0.677	0.785	0.717	0.599	0.984	1.06	1.1	1.04	0.509	0.521	0.301	0.141	0.362	0.691	0.601	0.665
NCI-H647	0.195	0.172	0.108	0.0934	0.569	0.429	0.567	0.654	1.1	1.12	1.06	1.2	1.09	1.26	0.894	0.467	0.316	0.377	0.289	0.233
NCI-H838	0.346	0.277	0.279	0.217	0.705	0.714	0.647	0.654	0.956	1.08	0.962	0.908	1.04	0.968	1.02	0.467	0.286	0.259	0.26	0.253
PC-14	0.274	0.291	0.17	0.095	0.73	0.79	0.55	0.669	0.903	0.993	0.985	0.994	0.924	0.943	1.02	0.766	0.593	0.653	0.587	0.642
NCI-H358	0.147	0.148	0.123	0.0945	0.659	0.697	0.646	0.729	0.767	0.841	0.661	0.685	0.831	0.981	0.769	0.595	0.0987	0.112	0.097	0.0994
NCI-H1915	0.326	0.317	0.304	0.286	0.567	0.511	0.483	0.534	1.08	1.16	1.07	1.05	1.08	1.11	0.998	1.07	0.486	0.431	0.432	0.394
